Values of other authors, collected in PMC3693451 (Bioorganic & medicinal chemistry letters, 2011).

Legend:
CB receptors [1] = conditions: read-out: Ki at both CB receptors
CB receptors [2] = system: CB receptors
[3] = system: rat CB1, human CB1 and human CB2 receptors
[4] = system: chronic neuropathic and inflammatory pain; conditions: rat
[5] = 214 targets
human CB1 = conditions: read-out: human CB1 Ki

O=S(=O)(CCCC(F)(F)F)Oc1cccc(Oc2cccc3c2C[C@H](CO)C3)c1 [BAY 38–7271, (−)-(R)-3-(2-hydroxymethylindanyl-4-oxy)phenyl-4,4,4-trifluoro-1-sulfonate]
Ki (CB receptors [1]): 0.46 to 1.85 nM
neuroprotective properties: pronounced neuroprotective properties
agonist type at both CB receptors (CB receptors [2]): full agonist

N#Cc1c(Oc2cccc(OS(=O)(=O)CCCC(F)(F)F)c2)cccc1C(F)(F)F [BAY 59–3074]
agonist properties in [35S]GTPγS binding assays [3]: partial agonist
effect in chronic neuropathic and inflammatory pain models [4]: pronounced antihyperalgesic and antiallodynic properties
selectivity for CB receptors in target screen [5]: no significant interactions with other targets
Ki (human CB1): 48.3 nM
